The source of these data is patent US11154551B2, “HDAC1,2 inhibitors and methods of using the same” (UNIVERSITY OF UTAH RESEARCH FOUNDATION, priority 2014, dated 2021).

In assay [1] the test system is Karpas-422 and SUDHL4 cells. Kind of assay: Western blot of acid-extracted histones (H4K91ac, H4K16ac, monoubiquitinated H4). The conditions noted are these: for monoubiquitinated form of H4 after doxorubicin: 48 h pretreatment, then 50 nM doxorubicin 4 h or 8 h. It counts as cell-based, human. For orientation: Immunoblotting shows a protein as a band on a membrane.
Protocol: Western analysis was performed with anti-BBAP antibody and histone H3 was used as a loading control. Whole cell lysate of HeLa cells was prepared following transfection of cells with either non-targeting or two different BBAP siRNAs. These extracts served as negative controls for the signal from BBAP antibody. (B): SUDHL4 and Karpas-422 cells were treated with DMSO or 2 μM ACY-957 for 48 hr prior to chromatin extraction. Western analysis was done using anti-H4K91ac or anti-H4K16ac and histone H4 served as a loading control. (C): HeLa cells were transfected with either wild type H4 or H4K91R mutant constructs for 65 hours prior to extraction of histones by trichloroacetic acid. Western blot analysis was performed with anti-FLAG antibody. (D): SUDHL4 cells and Karpas-422 were treated with DMSO or 2 μM ACY-957 for 24 hours and histones were extracted by TCA precipitation. Western blotting with anti-H4 was performed to detect H4 and monoubiquitylated H4. (E): SUDHL4 cells and Karpas-422 were treated with DMSO or 2 μM ACY-957 for 48 hours and treated with 50 nM doxorubicin for 4 hr or 8 hr prior to histone extraction. Histones were extracted by TCA precipitation and western blotting with anti-H4 was performed to detect H4 and monoubiquitinated H4.
Histone Extraction by Trichloroacetic Acid. DLBCL cells were treated with ACY957 in 25 cm^2 flasks. Following treatment, cells were pelleted, washed with PBS and the pellet was re-suspended in 400 μl of lysis buffer with protease inhibitors (200 μl 0.5M HEPES.KOH, pH 7.9, 15 μl 1M MgCl2, 50 μl 2M KCl, 50 μl 0.1M DTT, 100 μl 0.4M NEM, 10 μl 1000× Aprotinin/Leupeptin, 10 μl 1000× Pepstatin A, and water to a total volume of 10 m L plus Roche protease inhibitor cocktail). To the cell suspension, a final concentration of 0.2M sulfuric acid was added and samples were sonicated twice using the Fisher FB120 sonicator at amplitude of 50% and with 5 pulses. After sonication, proteins were extracted for 30 minutes at 4° C. with end over end rotation. Samples were then centrifuged at 13,000 rpm for 10 minutes at 4° C. and histones were precipitated with a 20% final concentration of trichloroacetic acid and incubated on ice for 30 minutes or moved directly to −80° C. overnight. Following precipitation, samples were centrifuged again for 10 minutes and the resulting pellet was washed with cold acidified acetone (acetone+0.05N HCl). The histone pellets were centrifuged at the same settings but for 5 minutes then washed again with cold acetone. After this wash the pellets were centrifuged for another 5 minutes and the acetone was discarded. Pellets were dried in an incubator at 37° C. for 5 minutes then re-suspended in 50 μl 2×SDS sample buffer+β-mercaptoethanol and 8 μl 1M Tris HCl pH 8 to neutralize. The samples were then boiled for 8 minutes at 95° C. and if there was still visible pellet they were either boiled longer, sonicated, had more sample buffer added or a combination thereof.
We treated Karpas-422 or SUDHL4 cells with DMSO or ACY-957 for 48 h prior to the incubation for 4 h or 8 h in the presence of doxorubicin.
Assay [2] has as its system Karpas-422 (EZH2GOF) cells. Kind of assay: neutral comet assay of DSB repair. In kind it is cell-based, human. The source says: (A) Measurement of repair efficiency in SUDHL5 (EZH2^WT) and Karpas-422 (EZH2^GOF) cells using neutral comet assay that detects only double-strand breaks (DSBs). In the comet, the head (H) represents intact DNA and the tail (T) represents the number of DSBs in a single cell. Tail moment is a measure of length and intensity of DNA in the tail, and the average tail moments from 100 comets are indicated within the figure for each cell/treatment combination. Doxo indicates doxorubicin; H121N indicates HDAC1,2 inhibitor. (B) DNA damage in EZH2GOF cells following knockdown of HDAC1,2 using siRNA. NT indicates non-targeting control siRNA; HDAC1,2 siRNA indicates combined treatment with HDAC1 siRNA and HDAC2 siRNA. (C) Karpas-422 cells treated with DMSO solvent or HDAC1,2 inhibitor were subjected to microlaser irradiation. H3K27me3, γH2AX, Bmi-1, and serine2-phosphorylated RNA Polymerase II (engaged in transcriptional elongation) were monitored at laser break sites (arrows) after 15 minutes of recovery time. Numbers overlaying the images indicate percentages of cells with γH2AX lines that co-localized with H3K27me3, Bmi-1, or Pol2Ser2-P lines from at least four independent experiments (p value<0.01).
Indeed, EZH2, H3K27me3, and HDAC1,2 all localize to sites of DNA breaks, which links them to DNA repair. […]

For assay [3], the system named is Karpas-422, SUDHL4, WSU-DLCL2 and HeLa cells. In words: laser micro-irradiation repair assay, H3K27me3 at break sites. The conditions noted are these: 15 min recovery, vs DMSO. In kind it is cell-based, human. On the procedure:
Following DMSO or ACY-957 treatment, cells were exposed to a 5Gy dose of ionizing radiation and allowed to recover for 30 minutes prior to chromatin extraction. Western blots were performed with anti-H3K27ac or anti-H3K27me3 with histone H3 serving as a loading control. (B-E): Karpas-422, SUDHL4, WSU-DLCL2 and HeLa cells were laser micro-irradiated and allowed to recover for 15 minutes before fixation and immunofluorescence staining with anti-γH2AX and anti-H3K27me3. Subsequently, the percentage of cells with H3K27me3 lines that co-localized with γH2AX were counted. Merge is the overlay of γH2AX and H3K27me3 pictures. (F-I): At least 100 cells with γH2AX lines were counted in each experiment. The quantitation shown was the average calculated from independent experiments+/−standard error. Quantitation from five, seven, five and six independent experiments performed in Karpas-422, SUDHL4, WSU-DLCL2 and HeLa cells, respectively, was used in the graph shown in this figure. […]
(A) Measurement of repair efficiency in SUDHL5 (EZH2^WT) and Karpas-422 (EZH2^GOF) cells using neutral comet assay that detects only double-strand breaks (DSBs). […] H3K27me3, γH2AX, Bmi-1, and serine2-phosphorylated RNA Polymerase II (engaged in transcriptional elongation) were monitored at laser break sites (arrows) after 15 minutes of recovery time. […]

Assay [4] deals with Karpas-422 and SUDHL4 cells. Kind of assay: Western blot of chromatin extracts for H3K27ac and H3K27me3. It counts as cell-based, human. On the procedure:
Western blot analysis was done with anti-H3K27ac, H3K27me3 or EZH2 and histone H3 served as a loading control.
Following DMSO or ACY-957 treatment, cells were exposed to a 5Gy dose of ionizing radiation and allowed to recover for 30 minutes prior to chromatin extraction. Western blots were performed with anti-H3K27ac or anti-H3K27me3 with histone H3 serving as a loading control. (B-E): Karpas-422, SUDHL4, WSU-DLCL2 and HeLa cells were laser micro-irradiated and allowed to recover for 15 minutes before fixation and immunofluorescence staining with anti-γH2AX and anti-H3K27me3. Subsequently, the percentage of cells with H3K27me3 lines that co-localized with γH2AX were counted. Merge is the overlay of γH2AX and H3K27me3 pictures. (F-I): At least 100 cells with γH2AX lines were counted in each experiment. The quantitation shown was the average calculated from independent experiments+/−standard error. Quantitation from five, seven, five and six independent experiments performed in Karpas-422, SUDHL4, WSU-DLCL2 and HeLa cells, respectively, was used in the graph shown in this figure. (J): Karpas-422 cells were micro-irradiated with a laser and allowed to recover for 15 minutes before fixation and immunofluorescence staining was performed with anti-γH2AX and anti-H3K27ac.
Protein Preparation and Western Blot Analysis.
The histone H3K27 residue was subjected to reversible acetylation and methylation. […] We also treated cells with the second EZH2 inhibitor, GSK126 alone, or combined with ACY-957 (ACY-957+GSK126). […] Cells were treated for 48 h prior to preparing chromatin extracts for Western analysis using antibodies recognizing H3K27ac or H3K27me3.
We first examined whether inhibiting HDAC1,2 activity induced any change in global H3K27ac or H3K27me3 on chromatin following DNA damage and during DNA repair. SUDHL4 or Karpas-422 cells with or without exposure to ionizing radiation (IR) were initially treated with DMSO or ACY-957 for 48 hr. Chromatin extracts were prepared from these cells following a 30 min recovery period (the repair phase) and changes in histone modifications were examined by Western blotting.

Assay [5] deals with T1, HDAC1 (Homo sapiens, UniProt Q13547).
T1 construct: purchased BPS Biosciences
In words: in vitro HDAC enzyme assay with recombinant enzyme. The conditions noted are these: from biochemical IC50 values, recombinant enzymes. The text has this: (§1) Among class I HDACs, Hdac1,2 share a 50% sequence homology with Hdac3. Therefore, we first determined the selectivity of ACY-957 towards HDAC1 and HDAC2 in in vitro enzyme assays using recombinant enzymes.

Assay [6] deals with T2, HDAC2 (Homo sapiens, UniProt Q92769).
T2 construct: purchased BPS Biosciences
Kind of assay: in vitro HDAC enzyme assay with recombinant enzyme. The conditions noted are these: from biochemical IC50 values, recombinant enzymes.
From the text: as §1

Assay [7] deals with Karpas-422 and SUDHL4 cells. In words: Western blot of histone acetylation marks in whole cell lysates. The conditions noted are these: vs DMSO.
Protocol: Compounds were diluted in DMSO to 50 fold the final concentration and a ten point three fold dilution series was made. The compounds were diluted in assay buffer (50 mM HEPES, pH 7.4, 100 mM KCl, 0.001% Tween-20, 0.05% BSA, 20 μM tris(2-carboxyethyl)phosphine) to 6 fold their final concentration. The HDAC enzymes (purchased from BPS Biosciences) were diluted to 1.5 fold their final concentration in assay buffer. The tripeptide substrate (synthesized in house) and trypsin at 0.05 μM final concentration were diluted in assay buffer at 6 fold their final concentration. Five μl compounds and 20 μl of enzyme were added to wells of a black, opaque 384 well plate in duplicate. Enzyme and compound were incubated together at room temperature for 10 minutes. Five μl of substrate was added to each well, the plate was shaken for 60 seconds and placed into a Victor 2 microtiter plate reader. The development of fluorescence was monitored for 60 min and the linear rate of the reaction was calculated. The IC50 was determined using Graph Pad Prism by a four parameter curve fit.

T2 sequence (Q92769 whole entry): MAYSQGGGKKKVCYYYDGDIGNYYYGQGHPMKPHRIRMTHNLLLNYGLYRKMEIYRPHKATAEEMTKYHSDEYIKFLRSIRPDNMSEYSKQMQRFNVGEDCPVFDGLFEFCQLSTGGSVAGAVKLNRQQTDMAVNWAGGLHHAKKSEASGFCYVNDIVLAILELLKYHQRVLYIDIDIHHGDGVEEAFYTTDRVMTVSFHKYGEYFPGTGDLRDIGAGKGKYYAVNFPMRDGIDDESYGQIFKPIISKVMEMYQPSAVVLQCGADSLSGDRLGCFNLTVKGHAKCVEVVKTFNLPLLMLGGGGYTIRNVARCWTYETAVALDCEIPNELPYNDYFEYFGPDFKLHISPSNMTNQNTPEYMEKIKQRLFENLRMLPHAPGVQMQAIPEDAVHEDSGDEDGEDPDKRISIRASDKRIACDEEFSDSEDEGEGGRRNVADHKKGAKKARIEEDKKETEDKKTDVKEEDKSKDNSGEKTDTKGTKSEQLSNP
T1 sequence (Q13547 whole entry): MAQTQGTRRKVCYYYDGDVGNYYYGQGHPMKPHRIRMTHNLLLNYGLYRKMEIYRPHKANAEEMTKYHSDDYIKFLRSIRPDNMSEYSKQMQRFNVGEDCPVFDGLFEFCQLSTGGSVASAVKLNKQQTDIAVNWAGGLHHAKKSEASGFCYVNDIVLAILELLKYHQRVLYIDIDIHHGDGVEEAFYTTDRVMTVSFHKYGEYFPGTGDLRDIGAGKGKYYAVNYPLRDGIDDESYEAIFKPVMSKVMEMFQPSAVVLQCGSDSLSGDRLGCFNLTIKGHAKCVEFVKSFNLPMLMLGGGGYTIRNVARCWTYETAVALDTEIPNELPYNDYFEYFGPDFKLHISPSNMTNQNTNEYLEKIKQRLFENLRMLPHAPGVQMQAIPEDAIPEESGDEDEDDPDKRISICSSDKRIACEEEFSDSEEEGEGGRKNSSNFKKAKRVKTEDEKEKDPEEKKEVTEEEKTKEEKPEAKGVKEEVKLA

On to `Nc1ccc(-c2cccs2)cc1NC(=O)c1ccc2nc(N3CCNCC3)ccc2c1` [ACY-957, N-(2-amino-5-(thiophen-2-yl)phenyl)-2-(piperazin-1-yl)quinoline-6-carboxamide], for which, in assay [1] (2 μM, 48 hr), the “global H4K16ac levels” value is on record as “increased global levels of H4K16ac” and the “global H4K91ac levels” value was “increased global H4K91ac levels”. Also, the “global monoubiquitinated form of H4” value in assay [1] (30 h or 48 h, without doxorubicin) is on record as “no change in global levels of the slow migrating monoubiquitinated form of H4”. The “monoubiquitinated form of H4 after doxorubicin” value in assay [1] was “significant reduction to complete absence of the slow migrating monoubiquitinated form of H4”. The “monoubiquitinated form of H4 after doxorubicin” value in assay [1] (listed as ACY957) is listed as “decrease in the BBAP-mediated H4K91 monoubiquitination”. Moreover, in assay [2], the “DSBs, comet tail moment” value was “increase in comet tail moment”. The “H3K27me3 at laser-induced break sites” value in assay [3] is given as “reduced the extent of H3K27me3 present at laser-induced break sites”. For the same molecule, in assay [3] (listed as ACY957), the “H3K27me3 at laser-induced break sites” value is on record as “abolished”. Besides, in assay [4] (48 h, chromatin extracts), the “global H3K27ac levels” value is reported as “robust increase in global H3K27ac levels” and the “global H3K27me3 levels” value is “remained unchanged”. Moreover, the “global H3K27me3 levels on chromatin” value in assay [4] (48 hr, 30 min recovery from IR) is on record as “concomitant decrease in global H3K27me3 levels on chromatin was not observed”. Besides, the “global H3K27ac levels on chromatin” value in assay [4] (48 hr, with or without exposure to IR) is on record as “increased”. In assay [5], the “selectivity for HDAC1 when compared to HDAC3” value worked out at 185 fold. In addition, the “selectivity for HDAC2 when compared to HDAC3” value in assay [6] was 72 fold. For the same molecule, the H3K23ac levels result in assay [7] (2 μM, 24 hours) was “increased H3K23ac levels”. The “H3K9,K14ac and H4K5ac levels” value in assay [7] (increasing amounts, 24 hr) is “concentration-dependent increase”.
